Patent publication US20140073761A1, “CONJUGATES CONTAINING HYDROPHILIC SPACER LINKERS” (priority 2007, published 2014)
*1 amine or outer side, *2 acyl side, *3 side chain or, on linkers, in order; H or OH if unused. Where a SMILES comes first, the peptide text is derived from it. [ ]: non-standard residue; d: D form. The star is where a group is joined. X1 = CC[C@]1(O)C[C@H]2CN(CCc3c([nH]c4ccccc34)[C@@](C(=O)OC)(c3cc4c(cc3OC)N(C)[C@H]3[C@@](O)(C(=O)NNC(=O)OCCS*)[C@H](O)[C@]5(CC)C=CCN6CC[C@]43[C@@H]65)C2)C1; Nle(3R-OH,4S-OH,5R-OH,6-OH) = N[C@H](C(=O)O)[C@@H](O)[C@H](O)[C@H](O)CO; Pteroyl = Nc1nc2ncc(CNc3ccc(C(=O)*)cc3)nc2c(=O)[nH]1; γGlu = O=C(O)[C@H](CCC(=O)[*:2])N[*:1]

Legend:
[1] = test system: folate receptor-positive KB cells; assay type: cell-based; conditions: excess folic acid
Description: Inhibition of Cellular DNA Synthesis. The compounds described herein were evaluated using an in vitro cytotoxicity assay that predicts the ability of the drug to inhibit the growth of folate receptor-positive KB cells. The compounds were comprised of folate linked to a respective chemotherapeutic drug, as prepared according to the protocols described herein. […] The cells were then rinsed once with fresh culture medium and incubated in fresh culture medium for 72 hours at 37° C. Cell viability was assessed using a ^3H-thymidine incorporation assay.
(§1) In Vitro Concentration-Dependent Cytotoxic Activity. Cells were heavily seeded in 24-well Falcon plates and allowed to form nearly confluent monolayers overnight. Thirty minutes prior to the addition of test article, spent medium was aspirated from all wells and replaced with fresh folate-free RPMI (FFRPMI). […] Treated cells were pulsed for 2 h at 37° C., rinsed 4 times with 0.5 mL of media, and then chased in 1 mL of fresh media up to 70 h. Spent media was aspirated from all wells and replaced with fresh media containing 5 μCi/mL ^3H-thymidine. Following a further 2 h 37° C. incubation, cells were washed 3 times with 0.5 mL of PBS and then treated with 0.5 mL of ice-cold 5% trichloroacetic acid per well. After 15 min, the trichloroacetic acid was aspirated and the cell material solubilized by the addition of 0.5 mL of 0.25 N sodium hydroxide for 15 min. Four hundred and fifty μL of each solubilized sample were transferred to scintillation vials containing 3 mL of Ecolume scintillation cocktail and then counted in a liquid scintillation counter. Final tabulated results were expressed as the percentage of ^3H-thymidine incorporation relative to untreated controls.
(§2) As shown in the figures herein, dose-dependent cytotoxicity was measurable, and in most cases, the IC50 values (concentration of drug conjugate required to reduce ^3H-thymidine incorporation into newly synthesized DNA by 50%) were in the low nanomolar range. […] The following table illustrated data for selected compounds against KB cells and against RAW264.7 cells

[2] = rat, in vivo
Description: Comparison of Bile Clearance (% ID) of unconjugated drug, drug conjugate lacking a hydrophilic spacer linker, and conjugates described herein.

RAW264.7 cells = assay type: cell-based; conditions: for RAW264.7 Cells Competable with xs folate: excess folic acid
Description: as §1, §2

[3] = FIG. 6B, 7B, 8B; M109 tumors, Balb/c mice; 2 μmol/kg TIW two weeks
Description: Toxicity as Measured by Weight Loss. The percentage weight change was determined in mice (5 mice/group) on selected days post-tumor inoculation (PTI), compared to controls, and graphed.

Row | Compound | KB Cells Competable with xs folate [1] | Bile clearance (% ID) [2] [% ID] | RAW264.7 Cells Competable with xs folate (RAW264.7 cells) | further results
1 | CC[C@]1(O)C[C@H]2CN(CCc3c([nH]c4ccccc34)[C@@](C(=O)OC)(c3cc4c(cc3OC)N(C)[C@H]3[C@@](O)(C(=O)NNC(=O)OCCSSC[C@H](NC(=O)CCOCCOCCOCCOCCOCCOCCOCCOCCOCCOCCOCCOCCNC(=O)CC[C@H](NC(=O)c5ccc(NCc6cnc7nc(N)nc(O)c7n6)cc5)C(=O)O)C(=O)O)[C@H](O)[C@]5(CC)C=CCN6CC[C@]43[C@@H]65)C2)C1 [EC0409] | Yes | 7.9 | – | –
2 | CNC(=O)[C@H](Cc1cn(CCO[C@@H]2OC(C(=O)O)C(O)[C@H](O)C2O)nn1)NC(=O)CC[C@H](NC(=O)c1ccc(NCc2cnc3nc(N)nc(O)c3n2)cc1)C(=O)O (stereo partly shown) [EC0423] | – | 3.9 | – | –
3 | CC[C@]1(O)C[C@H]2CN(CCc3c([nH]c4ccccc34)[C@@](C(=O)OC)(c3cc4c(cc3OC)N(C)[C@H]3[C@@](O)(C(=O)NNC(=O)OCCSSC[C@H](NC(=O)[C@@H](NC(=O)[C@@H](NC(=O)[C@H](CC(=O)O)NC(=O)[C@@H](NC(=O)CC[C@H](NC(=O)c5ccc(NCc6cnc7nc(N)[nH]c(=O)c7n6)cc5)C(=O)O)[C@@H](O)[C@H](O)[C@H](O)CO)[C@@H](O)[C@H](O)[C@H](O)CO)[C@@H](O)[C@H](O)[C@H](O)CO)C(=O)O)[C@H](O)[C@]5(CC)C=CCN6CC[C@]43[C@@H]65)C2)C1 [EC0258, Tris-Saccharo-Asp-Folate Vinblastine Conjugate] | Yes | 3.2 | – | –
4 | Nc1nc(N)c2nc(CNc3ccc(C(=O)N[C@@H](CCC(=O)OCCSSC[C@H](NC(=O)[C@H](CCC(=O)NC[C@H](O)[C@@H](O)[C@H](O)[C@H](O)CO)NC(=O)[C@H](CCC(=O)O)NC(=O)[C@H](CCC(=O)NC[C@H](O)[C@@H](O)[C@H](O)[C@H](O)CO)NC(=O)[C@H](CCC(=O)O)NC(=O)[C@H](CCC(=O)NC[C@H](O)[C@@H](O)[C@H](O)[C@H](O)CO)NC(=O)CC[C@H](NC(=O)c4ccc(NCc5cnc6nc(N)[nH]c(=O)c6n5)cc4)C(=O)O)C(=O)O)C(=O)O)cc3)cnc2n1 [EC0551] | – | – | Yes | IC50 (RAW264.7 cells): 1 nM
5 | CC(=O)O[C@H]1C(=O)[C@@]2(C)[C@H]([C@H](OC(=O)c3ccccc3)[C@]3(O)C[C@H](OC(=O)[C@H](OC(=O)COc4ccc(C(=O)NNC(=O)OCCSSC[C@H](NC(=O)[C@H](CCC(=O)NC[C@H](O)[C@@H](O)[C@H](O)[C@H](O)CO)NC(=O)[C@H](CCC(=O)O)NC(=O)[C@H](CCC(=O)NC[C@H](O)[C@@H](O)[C@H](O)[C@H](O)CO)NC(=O)[C@H](CCC(=O)O)NC(=O)[C@H](CCC(=O)NC[C@H](O)[C@@H](O)[C@H](O)[C@H](O)CO)NC(=O)CC[C@H](NC(=O)c5ccc(NCc6cnc7nc(N)[nH]c(=O)c7n6)cc5)C(=O)O)C(=O)O)cc4)[C@@H](NC(=O)c4ccccc4)c4ccccc4)C(C)=C1C3(C)C)[C@]1(OC(C)=O)CO[C@@H]1C[C@@H]2O [EC0561] | Yes | – | – | –
6 | CO[C@H]1C[C@@H]2CC[C@@H](C)[C@@](O)(O2)C(=O)C(=O)N2CCCC[C@H]2C(=O)O[C@H]([C@H](C)C[C@@H]2CC[C@@H](O)[C@H](OC)C2)CC(=O)[C@H](C)/C=C(\C)[C@@H](OC(=O)OCCSSCCC(=O)NC[C@@H]2NC(=O)[C@@H](NC(=O)[C@H](CCC(=O)O)NC(=O)[C@H](CCC(=O)NC[C@H](O)[C@@H](O)[C@H](O)[C@H](O)CO)NC(=O)[C@H](CCC(=O)O)NC(=O)[C@H](CCC(=O)NC[C@H](O)[C@@H](O)[C@H](O)[C@H](O)CO)NC(=O)CC[C@H](NC(=O)c3ccc(NCc4cnc5nc(N)[nH]c(=O)c5n4)cc3)C(=O)O)CCC(=O)NC[C@H](O)[C@@H](O)[C@H](O)[C@H]3COB(O3)[C@H](CC(C)C)NC(=O)[C@H](Cc3ccccc3)NC(=O)c3cnc(cn3)CSSC[C@@H](C(=O)O)NC2=O)[C@@H](OC)C(=O)[C@H](C)C[C@H](C)/C=C/C=C/C=C/1C [EC0563] | – | – | Yes | –
7 | CO[C@H]1C[C@@H]2CC[C@@H](C)[C@@](O)(O2)C(=O)C(=O)N2CCCC[C@H]2C(=O)O[C@H]([C@H](C)C[C@@H]2CC[C@@H](OCCOC(=O)OCCSSCCC(=O)NC[C@@H]3NC(=O)[C@@H](NC(=O)[C@H](CCC(=O)O)NC(=O)[C@H](CCC(=O)NC[C@H](O)[C@@H](O)[C@H](O)[C@H](O)CO)NC(=O)[C@H](CCC(=O)O)NC(=O)[C@H](CCC(=O)NC[C@H](O)[C@@H](O)[C@H](O)[C@H](O)CO)NC(=O)CC[C@H](NC(=O)c4ccc(NCc5cnc6nc(N)[nH]c(=O)c6n5)cc4)C(=O)O)CCC(=O)NC[C@H](O)[C@@H](O)[C@H](O)[C@H]4COB(O4)[C@H](CC(C)C)NC(=O)[C@H](Cc4ccccc4)NC(=O)c4cnc(cn4)CSSC[C@@H](C(=O)O)NC3=O)[C@H](OC)C2)CC(=O)[C@H](C)/C=C(\C)[C@@H](O)[C@@H](OC)C(=O)[C@H](C)C[C@H](C)/C=C/C=C/C=C/1C [EC0582] | – | – | Yes | –
8 | CC[C@]1(O)C[C@@H]2CN(CCc3c([nH]c4ccccc34)[C@@](C(=O)OC)(c3cc4c(cc3OC)N(C)[C@H]3[C@@](O)(C(=O)NN)[C@H](O)[C@]5(CC)C=CCN6CC[C@]43[C@@H]65)C2)C1 [DAVLBH, deacetylvinblastine monohydrazide, reference compound] | – | 58.0 | – | –
9 | COc1ccc(C[C@H]2NC(=O)/C=C/C[C@@H]([C@H](C)[C@@H](OC(=O)OCCSSC[C@H](NC(=O)[C@@H](NC(=O)[C@H](CC(=O)O)NC(=O)[C@@H](NC(=O)[C@H](CC(=O)O)NC(=O)[C@@H](NC(=O)CC[C@H](NC(=O)c3ccc(NCc4cnc5nc(N)[nH]c(=O)c5n4)cc3)C(=O)O)[C@@H](O)[C@H](O)[C@H](O)CO)[C@@H](O)[C@H](O)[C@H](O)CO)[C@@H](O)[C@H](O)[C@H](O)CO)C(=O)O)[C@@H](Cl)c3ccccc3)OC(=O)[C@H](CC(C)C)OC(=O)C(C)(C)CNC2=O)cc1Cl [EC0262] | Yes | – | – | –
10 | CCC(C)[C@H](NC(=O)[C@H]1CCCCN1C)C(=O)N(COC(=O)CC(C)C)[C@H](C[C@@H](OC(C)=O)c1nc(C(=O)N[C@@H](Cc2ccc(O)cc2)C[C@H](C)C(=O)NNC(=O)OCSSC[C@H](NC(=O)[C@H](CCC(=O)NC[C@H](O)[C@@H](O)[C@H](O)[C@H](O)CO)NC(=O)[C@H](CCC(=O)O)NC(=O)[C@H](CCC(=O)NC[C@H](O)[C@@H](O)[C@H](O)[C@H](O)CO)NC(=O)[C@H](CCC(=O)O)NC(=O)[C@H](CCC(=O)NC[C@H](O)[C@@H](O)[C@H](O)[C@H](O)CO)NC(=O)CC[C@H](NC(=O)c2ccc(NCc3cnc4nc(N)[nH]c(=O)c4n3)cc2)C(=O)O)C(=O)O)cs1)C(C)C (stereo partly shown) [EC0543] | Yes | – | – | –
11 | CC[C@]1(O)C[C@H]2CN(CCc3c([nH]c4ccccc34)[C@@](C(=O)OC)(c3cc4c(cc3OC)N(C)[C@H]3[C@@](O)(C(=O)NNC(=O)OCCSSC[C@H](NC(=O)[C@@H](NC(=O)[C@H](CC(=O)O)NC(=O)[C@@H](NC(=O)[C@H](CC(=O)O)NC(=O)[C@@H](NC(=O)[C@H](CC(=O)O)NC(=O)[C@@H](NC(=O)CC[C@H](NC(=O)c5ccc(NCc6cnc7nc(N)[nH]c(=O)c7n6)cc5)C(=O)O)[C@@H](O)[C@H](O)[C@H](O)CO)[C@@H](O)[C@H](O)[C@H](O)CO)[C@@H](O)[C@H](O)[C@H](O)CO)[C@@H](O)[C@H](O)[C@H](O)CO)C(=O)O)[C@H](O)[C@]5(CC)C=CCN6CC[C@]43[C@@H]65)C2)C1 [EC0434, Tetra-Saccharo-Tris-Asp-Folate Vinblastine Conjugate] ({Pteroyl-γGlu}-[Nle(3R-OH,4S-OH,5R-OH,6-OH)]D[Nle(3R-OH,4S-OH,5R-OH,6-OH)]D[Nle(3R-OH,4S-OH,5R-OH,6-OH)]D[Nle(3R-OH,4S-OH,5R-OH,6-OH)]C(X1)-OH) | – | – | – | gross toxicity (percentage body weight change) [3]: no gross toxicity was observed; percent of total dose in the bile (total DAVLBH biliary excretion) ([2]; iv): 2.8%
12 | CO[C@H]1C[C@@H]2CC[C@@H](C)[C@@](O)(O2)C(=O)C(=O)N2CCCC[C@H]2C(=O)O[C@H]([C@H](C)C[C@@H]2CC[C@@H](O)[C@H](OC)C2)CC(=O)[C@H](C)/C=C(\C)[C@@H](OC(=O)OCCSSC[C@H](NC(=O)[C@H](CCC(=O)NC[C@H](O)[C@@H](O)[C@H](O)[C@H](O)CO)NC(=O)[C@H](CCC(=O)O)NC(=O)[C@H](CCC(=O)NC[C@H](O)[C@@H](O)[C@H](O)[C@H](O)CO)NC(=O)[C@H](CCC(=O)O)NC(=O)[C@H](CCC(=O)NC[C@H](O)[C@@H](O)[C@H](O)[C@H](O)CO)NC(=O)CC[C@H](NC(=O)c2ccc(NCc3cnc4nc(N)[nH]c(=O)c4n3)cc2)C(=O)O)C(=O)O)[C@@H](OC)C(=O)[C@H](C)C[C@H](C)/C=C/C=C/C=C/1C [EC0552] | – | – | Yes | –
